Laboratory results from ChEMBL document CHEMBL4689842, “EUbOPEN Chemogenomics Library wave 1” (2021).

What was measured:
Assay type in all cases: toxicity, cell-based
U2OS = assay: Incucyte cell viability with U2OS; settings: human, 10 µM, compound concentration 10 uM
HEK-293T = assay: Incucyte cell viability with HEK293T; settings: human, 10 µM, compound concentration 10 uM
Fibroblast = assay: Incucyte cell viability with human fibroblast; settings: 10 µM, compound concentration 10 uM
[1] = 0 h, replicate number 1, timepoint 0 hours
[2] = 6 h, replicate number 2, timepoint 6 hours
[3] = 12 h, replicate number 1, timepoint 12 hours
[4] = 12 h, replicate number 2, timepoint 12 hours
[5] = 18 h, replicate number 1, timepoint 18 hours
[6] = 18 h, replicate number 2, timepoint 18 hours
[7] = 24 h, replicate number 1, timepoint 24 hours
[8] = 6 h, replicate number 1, timepoint 6 hours
[9] = 24 h, replicate number 2, timepoint 24 hours
[10] = 0 h, replicate number 2, timepoint 0 hours
Note: filed as whole numbers so only -1 and 0 and 1 occur.

| Structure (SMILES) | Growth Rate (U2OS; [1]) | Growth Rate (U2OS; [3]) | Growth Rate (U2OS; [4]) | Growth Rate (U2OS; [5]) | Growth Rate (U2OS; [6]) | Growth Rate (U2OS; [7]) | Growth Rate (HEK-293T; [1]) | Growth Rate (HEK-293T; [8]) | Growth Rate (HEK-293T; [2]) | Growth Rate (HEK-293T; [3]) | Growth Rate (HEK-293T; [5]) | Growth Rate (HEK-293T; [7]) | Growth Rate (Fibroblast; [1]) | Growth Rate (Fibroblast; [8]) | Growth Rate (Fibroblast; [3]) | Growth Rate (Fibroblast; [5]) | Growth Rate (Fibroblast; [7]) | Growth Rate (U2OS; [8]) | Growth Rate (HEK-293T; [10]) | Growth Rate (U2OS; [9]) | other results |
| --- | --- | --- | --- | --- | --- | --- | --- | --- | --- | --- | --- | --- | --- | --- | --- | --- | --- | --- | --- | --- | --- |
| CN(C(=O)Cc1ccc(Cl)c(Cl)c1)C(CN1CCCC1)c1cccc(OCC(=O)O)c1.Cl (stereo not drawn) | 0 | 0 | 1 | 0 | 1 | 1 | 0 | 1 | 0 | 1 | 1 | 1 | 0 | 0 | 0 | 0 | 0 | – | – | – | Growth Rate (U2OS; [2]): 1; Growth Rate (HEK-293T; [4]): 0; Growth Rate (HEK-293T; [9]): 0; Growth Rate (Fibroblast; [4]): 1 |
| Cc1cc(NC(=O)Nc2ccc(N(C)C)cc2)c2cc(F)cc(F)c2n1 | – | 0 | 1 | 0 | – | 0 | 0 | 0 | – | 0 | 0 | 0 | 1 | 0 | 1 | 1 | 1 | 0 | – | – | Growth Rate (U2OS; [10]): 0 |
| CC(=O)[C@@]1(O)CC[C@H]2[C@@H]3C[C@H](C)C4=CC(=O)CC[C@]4(C)[C@H]3CC[C@@]21C | 1 | 1 | – | 1 | – | 1 | 1 | 0 | – | 0 | 0 | 0 | 1 | 0 | 1 | 1 | 1 | 1 | 0 | – | Growth Rate (Fibroblast; [10]): 0 |
| Oc1ccc(-c2nc3cc(O)cc(Br)c3o2)cc1 | – | 1 | 0 | 1 | – | 1 | 1 | 0 | 1 | 0 | 1 | 0 | 0 | 0 | – | 1 | 1 | – | 0 | – | Growth Rate (U2OS; [2]): 0; Growth Rate (HEK-293T; [4]): 1 |
| O=C(O)COc1cccc(CN(Cc2ccc(-n3cccn3)cc2)S(=O)(=O)c2cccnc2)c1 | 0 | 1 | 0 | 1 | 0 | 1 | 0 | 1 | – | 1 | 1 | 1 | 1 | 0 | 1 | 1 | 1 | – | – | 0 | Growth Rate (U2OS; [2]): 0 |
| O=C(Nc1cccc2c(=O)cc(-c3nnn[nH]3)oc12)c1ccc(OCCCCc2ccccc2)cc1 | 1 | 0 | – | 0 | – | 1 | 1 | 0 | 1 | 0 | 0 | 0 | 0 | 0 | 0 | 0 | 0 | 0 | 0 | 0 | Growth Rate (HEK-293T; [9]): 1; Growth Rate (Fibroblast; [10]): 1; Growth Rate (Fibroblast; [4]): 1; Growth Rate (Fibroblast; [6]): 1 |
| CCc1cc2c(c(CC)n1)CCC(=O)N2Cc1ccc(-c2ccccc2-c2nnn[nH]2)cc1.Cl | 1 | 0 | – | 0 | – | 0 | 0 | 1 | 0 | 1 | 1 | 1 | 0 | 0 | 0 | 0 | 1 | 0 | – | 1 | Growth Rate (U2OS; [10]): 0; Growth Rate (HEK-293T; [6]): 0; Growth Rate (Fibroblast; [2]): 1; Growth Rate (Fibroblast; [6]): 1 |
| Cc1cc(C(=O)N2Cc3cnn(C)c3Nc3ccccc32)ccc1CNC(=O)N1CCC[C@H]1C(=S)N1CCCN(C)CC1 | – | 0 | 1 | 0 | 1 | 0 | 1 | 0 | 1 | 0 | 0 | 0 | 0 | 0 | 1 | 0 | 0 | 0 | 0 | – | Growth Rate (U2OS; [10]): 0; Growth Rate (HEK-293T; [4]): 1; Growth Rate (Fibroblast; [6]): 1 |
| Cc1cc(C)c(N)c(C#Cc2cccc(F)c2)n1.Cl | – | 0 | – | 0 | 1 | 0 | 1 | 0 | 1 | 0 | 0 | 0 | 0 | 0 | 0 | 0 | 0 | 0 | 0 | 1 | Growth Rate (HEK-293T; [4]): 1; Growth Rate (HEK-293T; [6]): 1; Growth Rate (HEK-293T; [9]): 1 |
| COc1ccc(/C=C/CCCCOc2ccc(C(=O)c3cccc(C(=O)O)c3)cc2CCC(=O)O)cc1 | 0 | – | 0 | 1 | 0 | 1 | 1 | 1 | – | 1 | 1 | 1 | 0 | 1 | 0 | 0 | 0 | – | 0 | 0 | Growth Rate (U2OS; [2]): 0; Growth Rate (HEK-293T; [9]): 0; Growth Rate (Fibroblast; [2]): 0 |
| Cc1cc(C)cc(C(=O)N(C)[C@H](Cc2ccc(-c3ccccc3)cc2)C(=O)N[C@@H](Cc2c[nH]c3ccccc23)C(=O)O)c1 | – | 0 | 1 | 0 | 1 | 0 | 1 | 0 | – | 0 | 0 | 0 | 0 | – | – | – | – | 0 | 0 | 1 | Growth Rate (U2OS; [10]): 0; Growth Rate (Fibroblast; [2]): 0; Growth Rate (Fibroblast; [4]): 1; Growth Rate (Fibroblast; [6]): 1; Growth Rate (Fibroblast; [9]): 1 |
